# Experiments:
# [1] = target: T1, human group 1B PLA2 (hps PLA2) (Homo sapiens, UniProt P04054); experiment: Example 8 fluorimetric PLA2 inhibition assay (PPyrPM), human enzyme; format: biochemical
# T1 construct: made in house; host or cells: E. coli
# Excerpt: In this example, a fluorimetric assay procedure was used to evaluate the indole and indole-related compounds of the invention as inhibitors of group 1B phospholipase A2 (PLA2) from human, mouse and porcine. A description of this assay is found in articles: Leslie, C C and Gelb, M H (2004) Methods in Molecular Biology “Assaying phospholipase A2 activity”, 284:229-242; Singer, A G, et al. (2002) Journal of Biological Chemistry “Interfacial kinetic and binding properties of the complete set of human and mouse groups I, II, V, X, and XII secreted phospholipases A2”, 277:48535-48549, which are incorporated herein as references.
# In general, this assay used a phosphatidylmethanol substrate with a pyrene fluorophore on the terminal end of the sn-2 fatty acyl chain. Without being bound by theory, close proximity of the pyrenes from neighboring phospholipids in a phospholipid vesicle caused the spectral properties to change relative to that of monomeric pyrene. Bovine serum albumin was present in the aqueous phase and captured the pyrene fatty acid when it is liberated from the glycerol backbone owing to the PLA2-catalyzed reaction. […] The effect of a given inhibitor and inhibitor concentration on human, mouse and porcine phospholipase was determined. […]
# The following procedure was performed to evaluate the inhibitory potency of the evaluated compounds. • 1. […]
# [2] = tested on: C57BL/6J mouse model of obesity; experiment: Example 10 mouse diet-induced obesity; format: in vivo; settings: low fat control diet (D12328) with vs without test article
# Excerpt: The high-fat diet-fed C57BL/6J mouse model of human diabetes, originally introduced by Surwit and colleagues (Surwit, R S, et al. (1988) “Diet-induced type […] diabetes in C57BL/6J mice”, Diabetes 37: 1163-1167) is a widely accepted, clinically relevant, polygenic model that induces obesity, dyslipidemia, glucose- and insulin-resistance as early as 3 weeks after commencing the high fat diet (Winzell, M S and Ahren, B (2004) “The high-fat diet-fed mouse: a model for studying mechanisms and treatment of impaired glucose tolerance and type 2 diabetes”, Diabetes 53 Suppl 3: S215-219). This model was used to investigate the effects of indole and indole-related Test Articles. Avandia (rosiglitazone) was used as a control Test Article. […]
# In these studies and the accompanying figures, Diet D12328 from Research Diets is referred to as the “Low Fat” or Control diet/chow, while Diet D12331 from Research Diets is referred to as the “High Fat” diet. […] The Test Article content was calculated such that ad libitum consumption by the animals would deliver doses (in mg of Test Article per kg animal weight per day) approximating those listed in Table 5.
# Animals were maintained on the diets for up to eleven weeks. Body weights were recorded weekly. […] The serum was analyzed for glucose, total cholesterol, triglycerides (TG) and lysophospholipid (LPC) content. […]
# T1 sequence (P04054 23-148): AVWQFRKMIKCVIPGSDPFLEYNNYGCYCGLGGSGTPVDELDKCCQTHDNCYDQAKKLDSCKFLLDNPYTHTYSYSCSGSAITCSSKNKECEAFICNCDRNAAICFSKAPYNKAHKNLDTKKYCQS
smiles,measurement,setting,value
"Cc1c(C(=O)C(N)=O)c2c(OCC(=O)NS(=O)(=O)CCCC(=O)O)cccc2n1Cc1ccccc1 [ILY-IV-40, 4-[2-(3-Aminooxalyl-1-benzyl-2-methyl-1H-indol-4-yloxy)-acetylsulfamoyl]-butyric acid]",IC50,[1],390 nM
same,effect in animals fed a low fat control diet,[2],No or little effect

# Reference: patent US20090318492A1, “INDOLE COMPOUNDS HAVING C4-ACIDIC SUBSTITUENTS AND USE THEREOF AS PHOSPHOLIPASE-A2 INHIBITORS” (priority 2005, published 2009)
